Data as given in patent US6583175B2, “Alkylxanthates and use of alkylxanthates in the integrated pest management” (Council of Scientific & Industrial Research, priority 2001, dated 2003).
Values after ≈ are worked out from the molar mass of the structure shown. Like-named read-outs stand apart in the source and are kept apart here.

Tests used:
[1] = system: Spodoptera litura; test: Antifeedant activity against late third instar of Spodoptera litura (leaf disk, oral feeding); format: in vivo
[2] = system: Brine shrimp, Artemia salina; details: in vivo
[3] = system: Spodoptera litura; format: in vivo; details: topical
[4] = system: Aedes aegypti; format: in vivo; details: IV instar larvae, 24 hours
[5] = system: Helicoverpa armigera; format: in vivo; details: topical

C/C=C(\C)C(=O)O[C@H]1C[C@@H](OC(C)=O)[C@@]2(C(=O)OC)CO[C@H]3[C@@H](O)[C@@](C)([C@]45O[C@@]4(C)[C@H]4C[C@@H]5O[C@@H]5OC=C[C@@]54O)[C@H]4[C@]1(CO[C@]4(O)C(=O)OC)[C@@H]32 [Azadiractin, reference compound]
Concentration required for 50% leaf protection EC50 ± S.E. ([1]; in vivo): 6.34 ± 1.77 μg/cm^2

CC[C@@]1(O)C(=O)OCc2c1cc1n(c2=O)Cc2cc3ccccc3nc2-1 [Chamtothecin, reference compound]
LC50 ± S.E. [2]: 2.53 ± 0.43 mg/L (≈ 7.26 µM)

CCCCOC(=S)SCSC(=S)OCCCC [Methylene bis (n-butylxanthate), Methylene Bis(n-butylxanthate)]
Adult emergence: Abnormal adults ([3]; 5 μg/Insect): 26 | Adult emergence: Intermediates ([3]; 5 μg/Insect): 28 | Adult emergence: Non-emergence ([3]; 5 μg/Insect): 0 | Adult emergence: Normal adults ([3]; 5 μg/Insect): 41 | Larval mortality (%) ([3]; 5 μg/Insect): 0% | Pupal Formation: Abnormal pupa ([3]; 5 μg/Insect): 41 | Pupal Formation: Normal pupa ([3]; 5 μg/Insect): 59 | Pupal Formation: Pupal Mortality ([3]; 5 μg/Insect): 5 | Adult emergence: Abnormal adults ([3]; 10 μg/Insect): 22 | Adult emergence: Intermediates ([3]; 10 μg/Insect): 34 | Adult emergence: Non-emergence ([3]; 10 μg/Insect): 1 | Adult emergence: Normal adults ([3]; 10 μg/Insect): 36 | Larval mortality (%) ([3]; 10 μg/Insect): 0% | Pupal Formation: Abnormal pupa ([3]; 10 μg/Insect): 48 | Pupal Formation: Normal pupa ([3]; 10 μg/Insect): 52 | Pupal Formation: Pupal Mortality ([3]; 10 μg/Insect): 8 | Adult emergence: Abnormal adults ([3]; 20 μg/Insect): 27 | Adult emergence: Intermediates ([3]; 20 μg/Insect): 32 | Adult emergence: Non-emergence ([3]; 20 μg/Insect): 2 | Adult emergence: Normal adults ([3]; 20 μg/Insect): 24 | Larval mortality (%) ([3]; 20 μg/Insect): 0% | Pupal Formation: Abnormal pupa ([3]; 20 μg/Insect): 53 | Pupal Formation: Normal pupa ([3]; 20 μg/Insect): 47 | Pupal Formation: Pupal Mortality ([3]; 20 μg/Insect): 17 | Adult emergence: Abnormal adults ([3]; 35 μg/Insect): 23 | Adult emergence: Intermediates ([3]; 35 μg/Insect): 23 | Adult emergence: Non-emergence ([3]; 35 μg/Insect): 25 | Adult emergence: Normal adults ([3]; 35 μg/Insect): 7 | Larval mortality (%) ([3]; 35 μg/Insect): 21% | Pupal Formation: Abnormal pupa ([3]; 35 μg/Insect): 54 | Pupal Formation: Normal pupa ([3]; 35 μg/Insect): 25 | Pupal Formation: Pupal Mortality ([3]; 35 μg/Insect): 26 | Adult emergence: Abnormal adults ([3]; 50 μg/Insect): 6 | Adult emergence: Intermediates ([3]; 50 μg/Insect): 8 | Adult emergence: Non-emergence ([3]; 50 μg/Insect): 9 | Adult emergence: Normal adults ([3]; 50 μg/Insect): 5 | Larval mortality (%) ([3]; 50 μg/Insect): 57% | Pupal Formation: Abnormal pupa ([3]; 50 μg/Insect): 38 | Pupal Formation: Normal pupa ([3]; 50 μg/Insect): 5 | Pupal Formation: Pupal Mortality ([3]; 50 μg/Insect): 24 | Adult emergence: Abnormal adults ([3]; 75 μg/Insect): 1 | Adult emergence: Intermediates ([3]; 75 μg/Insect): 2 | Adult emergence: Non-emergence ([3]; 75 μg/Insect): 25 | Adult emergence: Normal adults ([3]; 75 μg/Insect): 0 | Larval mortality (%) ([3]; 75 μg/Insect): 72% | Pupal Formation: Abnormal pupa ([3]; 75 μg/Insect): 28 | Pupal Formation: Normal pupa ([3]; 75 μg/Insect): 0 | Pupal Formation: Pupal Mortality ([3]; 75 μg/Insect): 25 | Adult emergence: Abnormal adults ([3]; 100 μg/Insect): 0 | Adult emergence: Intermediates ([3]; 100 μg/Insect): 0 | Adult emergence: Non-emergence ([3]; 100 μg/Insect): 14 | Adult emergence: Normal adults ([3]; 100 μg/Insect): 0 | Larval mortality (%) ([3]; 100 μg/Insect): 86% | Pupal Formation: Abnormal pupa ([3]; 100 μg/Insect): 14 | Pupal Formation: Normal pupa ([3]; 100 μg/Insect): 0 | Pupal Formation: Pupal Mortality ([3]; 100 μg/Insect): 14 | LC50 ± S.E. [4]: 5.33 ± 0.97 mg/L (≈ 17.1 µM) | A.I. (Anti-feedent Index) ([1]; 10 μg/sq. cm.): 5.50 | Percent leaf consumption 12 hr ([1]; 10 μg/sq. cm.): 48.55% | Percent leaf consumption 24 hr ([1]; 10 μg/sq. cm.): 85.1% | A.I. (Anti-feedent Index) ([1]; 15 μg/sq. cm.): 22.27 | Percent leaf consumption 12 hr ([1]; 15 μg/sq. cm.): 35.2% | Percent leaf consumption 24 hr ([1]; 15 μg/sq. cm.): 60.4% | A.I. (Anti-feedent Index) ([1]; 20 μg/sq. cm.): 35.14 | Percent leaf consumption 12 hr ([1]; 20 μg/sq. cm.): 22.5% | Percent leaf consumption 24 hr ([1]; 20 μg/sq. cm.): 45.6% | A.I. (Anti-feedent Index) ([1]; 25 μg/sq. cm.): 64.22 | Percent leaf consumption 12 hr ([1]; 25 μg/sq. cm.): 3.5% | Percent leaf consumption 24 hr ([1]; 25 μg/sq. cm.): 20.7% | A.I. (Anti-feedent Index) ([1]; 30 μg/sq. cm.): 85.37 | Percent leaf consumption 12 hr ([1]; 30 μg/sq. cm.): 0% | Percent leaf consumption 24 hr ([1]; 30 μg/sq. cm.): 7.5% | Concentration required for 50% leaf protection EC50 ± S.E. ([1]; late third instar): 17.11 ± 1.36 μg/cm^2 | Adult emergence: Abnormal adults ([5]; 20 μg/Insect): 41 | Adult emergence: Intermediates ([5]; 20 μg/Insect): 17 | Adult emergence: Non emergence ([5]; 20 μg/Insect): 3 | Adult emergence: Normal adults ([5]; 20 μg/Insect): 27 | Larval mortality (%) ([5]; 20 μg/Insect): 7% | Pupal Formation: Abnormal pupa ([5]; 20 μg/Insect): 36 | Pupal Formation: Normal pupa ([5]; 20 μg/Insect): 52 | Pupal Formation: Pupal Mortality ([5]; 20 μg/Insect): 5 | Adult emergence: Abnormal adults ([5]; 35 μg/Insect): 11 | Adult emergence: Intermediates ([5]; 35 μg/Insect): 18 | Adult emergence: Non emergence ([5]; 35 μg/Insect): 9 | Adult emergence: Normal adults ([5]; 35 μg/Insect): 17 | Larval mortality (%) ([5]; 35 μg/Insect): 12% | Pupal Formation: Abnormal pupa ([5]; 35 μg/Insect): 28 | Pupal Formation: Normal pupa ([5]; 35 μg/Insect): 27 | Pupal Formation: Pupal Mortality ([5]; 35 μg/Insect): 33 | Adult emergence: Abnormal adults ([5]; 50 μg/Insect): 9 | Adult emergence: Intermediates ([5]; 50 μg/Insect): 6 | Adult emergence: Non emergence ([5]; 50 μg/Insect): 21 | Adult emergence: Normal adults ([5]; 50 μg/Insect): 8 | Larval mortality (%) ([5]; 50 μg/Insect): 28% | Pupal Formation: Abnormal pupa ([5]; 50 μg/Insect): 32 | Pupal Formation: Normal pupa ([5]; 50 μg/Insect): 12 | Pupal Formation: Pupal Mortality ([5]; 50 μg/Insect): 28 | Adult emergence: Abnormal adults ([5]; 75 μg/Insect): 1 | Adult emergence: Intermediates ([5]; 75 μg/Insect): 2 | Adult emergence: Non emergence ([5]; 75 μg/Insect): 24 | Adult emergence: Normal adults ([5]; 75 μg/Insect): 0 | Larval mortality (%) ([5]; 75 μg/Insect): 49% | Pupal Formation: Abnormal pupa ([5]; 75 μg/Insect): 27 | Pupal Formation: Normal pupa ([5]; 75 μg/Insect): 0 | Pupal Formation: Pupal Mortality ([5]; 75 μg/Insect): 24 | Adult emergence: Abnormal adults ([5]; 100 μg/Insect): 0 | Adult emergence: Intermediates ([5]; 100 μg/Insect): 2 | Adult emergence: Non emergence ([5]; 100 μg/Insect): 20 | Adult emergence: Normal adults ([5]; 100 μg/Insect): 0 | Larval mortality (%) ([5]; 100 μg/Insect): 61% | Pupal Formation: Abnormal pupa ([5]; 100 μg/Insect): 22 | Pupal Formation: Normal pupa ([5]; 100 μg/Insect): 0 | Pupal Formation: Pupal Mortality ([5]; 100 μg/Insect): 17
